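Briefly, cells in 96-well plates were exposed to five compound concentrations for 48 h, and endpoints were estimated by linear interpolation. Abbreviation: GI50, concentration required for 50% inhibition of growth.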 Activity calls are given as the source filed them. Cut-off read from the data, not from the text of the source: active = GI50 up to about 1.1 µM and inactive = higher.
Legend:
Assay in all cases: inhibition of tumour cell growth, NCI panel, 48 h
[1] = system: MDA-MB-435
[2] = system: U-251
[3] = system: HCT-15
[4] = system: NCI/ADR-RES
[5] = system: M14
[6] = system: HOP-92
[7] = system: RXF 393
[8] = system: CCRF-CEM
[9] = system: A549
[10] = system: Hs-578T
[11] = system: T47D
[12] = system: OVCAR-5
[13] = system: SNB-19
[14] = system: K562
[15] = system: TK-10
[16] = system: A498
[17] = system: OVCAR-4
[18] = system: NCI-H522
[19] = system: Malme-3M

Row | SMILES | GI50 [1] | GI50 [2] | GI50 [3] | GI50 [4] | GI50 [5] | GI50 [6] | GI50 [7] | GI50 [8] | GI50 [9] | GI50 [10] | GI50 [11] | GI50 [12] | GI50 [13] | GI50 [14] | GI50 [15] | GI50 [16] | GI50 [17] | GI50 [18] | GI50 [19]
1 | C[C@H](O)C1CC(Cn2nnc3c(N)ncnc32)C1(C)C (some centres not stated) | > 100 µM (inactive) | > 100 µM (inactive) | > 100 µM | > 100 µM (inactive) | > 100 µM (inactive) | > 100 µM (inactive) | > 100 µM (inactive) | > 100 µM (inactive) | > 100 µM (inactive) | > 100 µM (inactive) | > 100 µM (inactive) | > 100 µM (inactive) | > 100 µM (inactive) | < 0.01 µM (active) | > 100 µM (inactive) | > 100 µM (inactive) | > 100 µM (inactive) | – | –
2 | CC1(C)CC(=O)C2=C(C1)OC1=C(CC(C)(C)CC1=O)C2c1ccccc1Cl (configuration not stated) | > 100 µM (inactive) | > 100 µM (inactive) | > 100 µM | > 100 µM (inactive) | > 100 µM (inactive) | > 100 µM (inactive) | > 100 µM (inactive) | > 100 µM (inactive) | > 100 µM (inactive) | > 100 µM (inactive) | > 100 µM (inactive) | > 100 µM (inactive) | > 100 µM (inactive) | > 100 µM (inactive) | – | > 100 µM (inactive) | > 100 µM (inactive) | > 100 µM (inactive) | > 100 µM (inactive)
3 | O=C1CC2C=CC(O)C(C1)C2 (configuration not stated) | > 100 µM (inactive) | > 100 µM (inactive) | > 100 µM | > 100 µM (inactive) | > 100 µM (inactive) | – | 3.49 µM (inactive) | > 100 µM (inactive) | – | 21 µM (inactive) | > 100 µM (inactive) | > 100 µM (inactive) | > 100 µM (inactive) | > 100 µM (inactive) | > 100 µM (inactive) | > 100 µM (inactive) | > 100 µM (inactive) | > 100 µM (inactive) | > 100 µM (inactive)
4 | COc1cc2c(cc1OC)C(CC(=O)NN=C(C)C)NCC2 (configuration not stated) | – | > 100 µM (inactive) | > 100 µM | – | > 100 µM (inactive) | > 100 µM (inactive) | > 100 µM (inactive) | > 100 µM (inactive) | > 100 µM (inactive) | – | – | > 100 µM (inactive) | > 100 µM (inactive) | > 100 µM (inactive) | > 100 µM (inactive) | > 100 µM (inactive) | > 100 µM (inactive) | > 100 µM (inactive) | > 100 µM (inactive)
5 | O=C1C2C(C(=O)N1c1ccccc1)C1(Br)c3ccccc3C2(Br)C2C(=O)N(c3ccccc3)C(=O)C21 (configuration not stated) | – | > 31.6 µM (inactive) | 23.8 µM | – | > 31.6 µM (inactive) | > 10 µM (inactive) | 11 µM (inactive) | 26.6 µM (inactive) | 28.1 µM (inactive) | – | – | > 31.6 µM (inactive) | > 31.6 µM (inactive) | 6.27 µM (inactive) | > 31.6 µM (inactive) | 21.9 µM (inactive) | 7.21 µM (inactive) | > 10 µM (inactive) | 30.1 µM (inactive)
6 | C[C@H]1OC(=O)[C@@H]2N=NN(Cc3ccccc3)[C@H]12 | > 100 µM (inactive) | > 100 µM (inactive) | > 100 µM | > 100 µM (inactive) | > 100 µM (inactive) | > 100 µM (inactive) | > 100 µM (inactive) | – | > 100 µM (inactive) | – | > 100 µM (inactive) | > 100 µM (inactive) | > 100 µM (inactive) | > 100 µM (inactive) | > 100 µM (inactive) | > 100 µM (inactive) | > 100 µM (inactive) | > 100 µM (inactive) | > 100 µM (inactive)
7 | CC(C)(C)C1CCC(CI)(N=[N+]=[N-])CC1 (configuration not stated) | – | > 100 µM (inactive) | > 100 µM | – | > 100 µM (inactive) | > 100 µM (inactive) | > 100 µM (inactive) | > 100 µM (inactive) | > 100 µM (inactive) | – | – | > 100 µM (inactive) | > 100 µM (inactive) | > 100 µM (inactive) | > 100 µM (inactive) | > 100 µM (inactive) | > 100 µM (inactive) | > 100 µM (inactive) | > 100 µM (inactive)
8 | COP(=O)(Cc1ccc(/C=C/C#N)o1)OC | > 100 µM (inactive) | > 100 µM (inactive) | > 100 µM | > 100 µM (inactive) | > 100 µM (inactive) | > 100 µM (inactive) | > 100 µM (inactive) | > 100 µM (inactive) | > 100 µM (inactive) | 62.2 µM (inactive) | > 100 µM (inactive) | – | > 100 µM (inactive) | > 100 µM (inactive) | > 100 µM (inactive) | > 100 µM (inactive) | > 100 µM (inactive) | > 100 µM (inactive) | 47.2 µM (inactive)
9 | N#CC(C(=O)/C(=N\NC(N)=O)C(C#N)c1ccccc1)c1ccccc1 (configuration not stated) | – | > 100 µM (inactive) | > 100 µM | – | > 100 µM (inactive) | > 100 µM (inactive) | > 100 µM (inactive) | > 100 µM (inactive) | > 100 µM (inactive) | – | – | > 100 µM (inactive) | > 100 µM (inactive) | > 100 µM (inactive) | > 100 µM (inactive) | > 100 µM (inactive) | > 100 µM (inactive) | > 100 µM (inactive) | > 100 µM (inactive)
